Key:
[1] = Storage stability of crystal form drug substance (HPLC purity and XRPD); format: physicochemical
Experimental: The X-ray powder diffraction pattern described in the invention is collected by a Bruker X-ray powder diffractometer. The parameters for the X-ray powder diffraction method according to the invention are as follows: • X-ray light source: Cu, Kα, • Kα1 (Å): 1.54060; Kα2 (Å): 1.54439, • Kα2/Kα1 intensity ratio: 0.50.
An appropriate amount of a crystal-form-CSI sample was packaged under corresponding packaging conditions and stored at 40° C./75% RH for a certain period of time, the purity and crystal form were determined by HPLC and XRPD, and the results are shown in Table 7.
Open: a sample was placed in a glass vial without a lid and stored in corresponding environment while the vial was open.
An appropriate amount of a crystal-form-CSII sample was packaged under corresponding packaging conditions and stored for a certain period of time at 25° C./60% RH, 40° C./75% RH, and 60° C./75% RH, the purity and crystal form were determined by HPLC and XRPD, and the result is shown in Table 12.
Sealing: The sample was placed in a glass vial, which was covered by a lid and sealed in a double-layer PE bag, followed by an aluminum foil bag. […]
Sealed: The sample was placed in a glass vial, which was covered by a lid and sealed in a double-layer PE bag, followed by an aluminum foil bag. […]
An appropriate amount of a crystal-form-CSV sample was packaged under corresponding packaging conditions and stored for a certain period of time at 25° C./60% RH, 40° C./75% RH, and 60° C./75% RH, the purity and crystal form were determined by HPLC and XRPD, and the result is shown in Table 16.

[2] = Stability under mechanical force: ball milling, XRPD; format: physicochemical; details: 500 rpm, 5 minutes, XRPD before and after
Experimental: A crystal-form-CSII sample was ball-milled at a vibration speed of 500 rpm for 5 minutes using a ball mill, the sample before and after ball milling was tested by XRPD, the test result is shown in FIG. 17, and crystal form CSII is not changed after ball milling.
A crystal-form-CSIII sample was ball-milled at a vibration speed of 500 rpm for 5 minutes using a ball mill. The sample before and after ball milling was tested by XRPD, the test result is shown in FIG. 22, and crystal form CSIII is not changed after the ball milling.
A crystal-form-CSIV sample was ball-milled at a vibration speed of 500 rpm for 5 minutes using a ball mill, the sample before and after ball milling was tested by XRPD, the test result is shown in FIG. 25, and crystal form CSIV is not changed after ball milling.
A crystal-form-CSV sample was ball-milled at a vibration speed of 500 rpm for 5 minutes using a ball mill, the sample before and after ball milling was tested by XRPD, the test result is shown in FIG. 28, and crystal form CSV is not changed after ball milling.

[3] = Stability under mechanical force: tableting, XRPD; format: physicochemical; details: 15 KN, φ 6 mm round tooling, XRPD before and after
[4] = Hygroscopicity by dynamic vapor sorption (DVS); format: physicochemical; details: for weight increase due to hygroscopicity: 25° C.
Experimental: The dynamic vapor sorption (DVS) pattern for the experiment is collected by an Intrinsic dynamic vapor sorption instrument manufactured by Surface Measurement Systems Ltd. (SMS). Control software for the instrument is DVS-Intrinsic control software. The method parameters of the dynamic vapor sorption instrument are as follows: • temperature: 25° C., • carrier gas, and flow rate: N2, and 200 ml/min, • mass change per unit time: 0.002%/min, • relative humidity range: 0% RH-95% RH.
(§1) About 10 mg of a crystal-form-CSI sample was taken and tested for hygroscopicity using a dynamic vapor sorption (DVS) instrument, with a relative humidity cycle of 30%-90%-0%-90% RH, and a mass change for each humidity was recorded. The sample was tested by XRPD before and after DVS testing. […] The DVS pattern of crystal form CSI is shown in FIG. 13, and the weight increase of crystal form CSI due to hygroscopicity is 0.36% at 30%-80% RH.
as §1, with “crystal-form-CSII” for “crystal-form-CSI”, “0%-90%-0%” for “30%-90%-0%-90%”, “CSII” for “CSI”, “18,” for “13,”, “0.28%” for “0.36%”, “0%-80%” for “30%-80%”
as §1, with “crystal-form-CSIII” for “crystal-form-CSI”, “0%-90%-0%” for “30%-90%-0%-90%”, “CSIII” for “CSI”, “23,” for “13,”, “0.21%” for “0.36%”, “0%-80%” for “30%-80%”
as §1, with “crystal-form-CSIV” for “crystal-form-CSI”, “0%-90%-0%” for “30%-90%-0%-90%”, “CSIV” for “CSI”, “26,” for “13,”, “0.11%” for “0.36%”, “0%-80%” for “30%-80%”
as §1, with “crystal-form-CSV” for “crystal-form-CSI”, “a” for “a relative humidity”, “CSV” for “CSI”, “29,” for “13,”, “0.29%” for “0.36%”

[5] = Crystal form stability in formulation process, XRPD; format: physicochemical; details: formula Table 8, process Table 10, XRPD
Experimental: A crystal-form-CSI formulation was prepared by using the formulation formula shown in table 8 and the formulation process shown in table 10, and a formula for mixture of excipients is shown in table 9. A mixture of excipients and the sample before and after the formulation formulas were tested by XRPD, and the result is shown in FIG. 14.
(§2) A crystal-form-CSII formulation was prepared by using the formulation formula shown in Table 8 and the formulation process shown in Table 10, and an excipient formula is shown in Table 9. A mixture of excipients and the sample before and after the formulation formulas were tested by XRPD, and the result is shown in FIG. 19.
as §2, with “crystal-form-CSV” for “crystal-form-CSII”, “30.” for “19.”

[6] = Thermal gravimetric analysis (TGA); format: physicochemical; details: 10° C./min, N2
Experimental: The thermal gravimetric analysis (TGA) pattern as described in the invention is collected by TA Q500. The parameters for the thermal gravimetric analysis (TGA) method described in the invention are as follows: • scanning speed: 10° C./min, • protective gas: N2.

[7] = Phase-Ib clinical result, Cerevel Therapeutics; cited from earlier work
[8] = heated from room temperature to 180° C.

Row | SMILES | stable for at least ([1]; 25° C./60% RH) | Crystal Form ([1]; 25° C./60% RH, sealed, 6 month) | Purity ([1]; 25° C./60% RH, sealed, 6 month) | stable for at least ([1]; 40° C./75% RH) | Crystal Form ([1]; 40° C./75% RH, sealed, 6 month) | Purity ([1]; 40° C./75% RH, sealed, 6 month) | stable for at least ([1]; 60° C./75% RH) | Crystal Form ([1]; initial (before storage)) | Purity ([1]; initial (before storage)) | crystal form after ball milling [2] | crystal form after tableting [3] | weight increase due to hygroscopicity ([4]; 30%-80% RH) | change in sample properties after humidity cycle ([4]; 30%-90%-0%-90% RH cycle) | crystal form after DVS testing ([4]; 30%-90%-0%-90% RH cycle) | crystal form after formulation formula processes [5] | change in sample properties after humidity cycle ([4]; 0%-90%-0% RH cycle) | Crystal Form ([1]; 60° C./75% RH, sealed, 1 month) | weight increase due to hygroscopicity ([4]; 0%-80% RH) | crystal form after DVS testing ([4]; 0%-90%-0% RH cycle) | TGA weight loss [6, 8] | also measured
1 | Cc1cc(C)c2c(n1)CN(C(=O)CC1CN(c3ccnc(C(F)(F)F)c3)C1)C2 [Crystal Form CSV] | at least 6 months | Form CSV | 99.96% | at least 6 months | Form CSV | 99.96% | at least 2 month | Form CSV | 99.96% | not changed | not changed | 0.29% | no significant change in sample properties | not changed | not changed | – | – | – | – | – | Crystal Form ([1]; 60° C./75% RH, sealed, 2 month): Form CSV; Purity ([1]; 60° C./75% RH, sealed, 2 month): 99.95%; TGA weight loss ([6]; heated from 35° C. to 150° C.): 3.8%
2 | Cc1cc(C)c2c(n1)CN(C(=O)CC1CN(c3ccnc(C(F)(F)F)c3)C1)C2 [Emraclidine, 1-(2,4-dimethyl-5,7-dihydro-6H-pyrrolo[3,4-b]pyridin-6-yl)-2-{1-[2-(trifluoromethyl)pyridin-4-yl]azetidin-3-yl}ethanone] | – | – | – | – | – | – | – | – | – | – | – | – | – | – | – | – | – | – | – | – | antipsychotic activities compared to placebos [7]: clinically significant antipsychotic activities
3 | Cc1cc(C)c2c(n1)CN(C(=O)CC1CN(c3ccnc(C(F)(F)F)c3)C1)C2 [Crystal Form CSI] | – | – | – | at least 6 months | – | – | – | Form CSI | 99.53% | remains unchanged | remains unchanged | 0.36% | no significant change in sample properties | remains unchanged | not changed | no significant change in sample properties | – | – | – | – | Crystal Form ([1]; 40° C./75% RH, open, 6 month): Form CSI; Purity ([1]; 40° C./75% RH, open, 6 month): 99.59%
4 | Cc1cc(C)c2c(n1)CN(C(=O)CC1CN(c3ccnc(C(F)(F)F)c3)C1)C2 [Crystal Form CSII] | at least 6 months | Form CSII | 99.60% | at least 6 months | Form CSII | 99.57% | at least 1 month | Form CSII | 99.56% | not changed | not changed | – | – | – | not changed | no significant change in sample properties | Form CSII | 0.28% | not changed | substantially no weight loss | Purity ([1]; 60° C./75% RH, sealed, 1 month): 99.55%
5 | Cc1cc(C)c2c(n1)CN(C(=O)CC1CN(c3ccnc(C(F)(F)F)c3)C1)C2 [Crystal Form CSIV] | at least 6 months | Form CSIV | – | at least 6 months | Form CSIV | – | at least 1 month | Form CSIV | – | not changed | – | – | – | – | – | no significant change in sample properties | Form CSIV | 0.11% | not changed | substantially no weight loss | –
6 | Cc1cc(C)c2c(n1)CN(C(=O)CC1CN(c3ccnc(C(F)(F)F)c3)C1)C2 [Crystal Form CSIII] | – | – | – | at least 2 months | – | – | – | Form CSIII | – | not changed | – | – | – | – | – | – | – | 0.21% | not changed | – | Crystal Form ([1]; 40° C./75% RH, sealed, 2 month): Form CSIII; TGA weight loss ([6]; heated from room temperature to 170° C.): substantially no weight loss

— patent US20260337191A1, “CRYSTAL FORM OF EMRACLIDINE, PREPARATION METHOD THEREFOR, AND USE THEREOF” (Cerevel Therapeutics, LLC, priority 2022, published 2026)
